Patent US11337971B2, “Dopamine D3 receptor selective antagonists/partial agonists and uses thereof” (THE UNITED STATES OF AMERICA, AS REPRESENTED BY THE …, priority 2018, dated 2022)
Read-outs that look alike come from different tables or passages of the source.

Experiments:
[1] = target: human D2R (Homo sapiens (Human), UniProt P14416); assay: Radioligand competition binding, [3H]N-methylspiperone, HEK293 membranes expressing human D2R; details: read-out: D2R Ki ± SEM
Procedure: (§1) Binding at dopamine D2-like receptors was determined using previously described methods. […] Upon reaching 80-90% confluence, cells were harvested using pre-mixed Earle's Balanced Salt Solution (EBSS) with […] EDTA (Life Technologies) and centrifuged at 3000 rpm for 10 min at 21° C. The supernatant was removed and the pellet was resuspended in 10 mL hypotonic lysis buffer (5 mM MgCl2.6H2O, 5 mM Tris, pH 7.4 at 4° C.) and centrifuged at 20,000 rpm for 30 min at 4° C. The pellet was then resuspended in fresh EBSS buffer made from 8.7 g/L Earle's Balanced Salts without phenol red (US Biological, Salem, Mass.), 2.2 g/L sodium bicarbonate, pH to 7.4. A Bradford protein assay (Bio-Rad, Hercules, Calif.) was used to determine the protein concentration and membranes were diluted to 500 μg/mL and stored in a −80° C. freezer for later use.
(§2) Radioligand competition binding experiments were conducted using thawed membranes. Test compounds were freshly dissolved in 30% DMSO and 70% H2O to a stock concentration of 100 μM. To assist the solubilization of free-base compounds, 10 μl of glacial acetic acid was added along with the DMSO. Each test compound was then diluted into 13 half-log serial dilutions using 30% DMSO vehicle; final test concentrations ranged from 10 μM to 10 pM. Previously frozen membranes were diluted in fresh EBSS to a 100 μg/mL (for hD2R or hD3R) or 200 μg/mL (hD4R) stock for binding. […] buffer with 0.2 mM sodium metabisulfite, 50 μl of diluted test compound, 100 μl of membranes (10 μg total protein for hD2R or hD3R, 20 μg total protein for hD4R), and 50 μl of [^3H]N-methylspiperone (0.4 nM final concentration; Perkin Elmer). Nonspecific binding was determined using 10 μM butaclamol (Sigma-Aldrich, St. Louis, Mo.) and total binding was determined with 30% DMSO vehicle. All compound dilutions were tested in triplicate and the reaction incubated for one hour at room temperature. The reaction was terminated by filtration through Whatman GF/B filters, presoaked for one hour in 0.5% polyethylenimine, using a Brandel R48 filtering manifold (Brandel Instruments, Gaithersburg, Md.). The filters were washed 3 times with 3 mL of ice cold EBSS buffer and transferred to scintillation vials. […] IC50 values for each compound were determined from dose-response curves and Ki values were calculated using the Cheng-Prusoff equation; these analyses were performed using GraphPad Prism version 5.00 for Windows (GraphPad Software, San Diego, Calif.). Reported Ki values were determined from least three independent experiments.
(§3) The binding affinities of the compounds were evaluated by performing competition binding studies with [^3H]N-methylspiperone using membranes prepared from HEK293 cells expressing either the human D2R or D3R.

[2] = target: human D3R (Homo sapiens (Human), UniProt P35462); assay: Radioligand competition binding, [3H]N-methylspiperone, HEK293 membranes expressing human D3R; details: for D2/D3: ratio of Ki values; for Ki: read-out: D3R Ki ± SEM
Procedure: as §1, §2, §3

[3] = target: human D4R (Homo sapiens (Human), UniProt P21917); assay: Radioligand competition binding, [3H]N-methylspiperone, HEK293 membranes expressing human D4R; details: Table 1A; for Ki: [3H]N-methylspiperone, read-out: D4R Ki ± SEM; for D4/D2 / D4/D3: ratio of Ki values
Procedure: Binding at dopamine D2-like receptors was determined using previously described methods. (Chen et al. “Tranylcypromine substituted cis-hydroxycyclobutylnaphthamides as potent and selective dopamine D(3) receptor antagonists.” J. Med. Chem. 2014, 57, 4962-4968) Membranes were prepared from HEK293 cells expressing human D2R, D3R or D4R, grown in a 50:50 mix of DMEM and Ham's F12 culture media, supplemented with 20 mM HEPES, 2 mM L-glutamine, 0.1 mM non-essential amino acids, 1× antibiotic/antimycotic, 10% heat-inactivated fetal bovine serum, and 200 μg/mL hygromycin (Life Technologies, Grand Island, N.Y.) and kept in an incubator at 37° C. and 5% CO2. Upon reaching 80-90% confluence, cells were harvested using pre-mixed Earle's Balanced Salt Solution (EBSS) with […] EDTA (Life Technologies) and centrifuged at 3000 rpm for 10 min at 21° C. The supernatant was removed and the pellet was resuspended in 10 mL hypotonic lysis buffer (5 mM MgCl2.6H2O, 5 mM Tris, pH 7.4 at 4° C.) and centrifuged at 20,000 rpm for 30 min at 4° C. The pellet was then resuspended in fresh EBSS buffer made from 8.7 g/L Earle's Balanced Salts without phenol red (US Biological, Salem, Mass.), 2.2 g/L sodium bicarbonate, pH to 7.4. A Bradford protein assay (Bio-Rad, Hercules, Calif.) was used to determine the protein concentration and membranes were diluted to 500 μg/mL and stored in a −80° C. freezer for later use.
Radioligand competition binding experiments were conducted using thawed membranes. Test compounds were freshly dissolved in 30% DMSO and 70% H2O to a stock concentration of 100 μM. To assist the solubilization of free-base compounds, 10 μl of glacial acetic acid was added along with the DMSO. Each test compound was then diluted into 13 half-log serial dilutions using 30% DMSO vehicle; final test concentrations ranged from 10 μM to 10 pM. Previously frozen membranes were diluted in fresh EBSS to a 100 μg/mL (for hD2R or hD3R) or 200 μg/mL (hD4R) stock for binding. Radioligand competition experiments were conducted in glass tubes containing 300 μl fresh EBSS buffer with 0.2 mM sodium metabisulfite, 50 μl of diluted test compound, 100 μl of membranes (10 μg total protein for hD2R or hD3R, 20 μg total protein for hD4R), and 50 μl of [^3H]N-methylspiperone (0.4 nM final concentration; Perkin Elmer). Nonspecific binding was determined using 10 μM butaclamol (Sigma-Aldrich, St. Louis, Mo.) and total binding was determined with 30% DMSO vehicle. All compound dilutions were tested in triplicate and the reaction incubated for one hour at room temperature. The reaction was terminated by filtration through Whatman GF/B filters, presoaked for one hour in 0.5% polyethylenimine, using a Brandel R48 filtering manifold (Brandel Instruments, Gaithersburg, Md.). The filters were washed 3 times with 3 mL of ice cold EBSS buffer and transferred to scintillation vials. 3 mL CytoScint liquid scintillation cocktail (MP Biomedicals, Solon, Ohio) was added and vials were counted using a Perkin Elmer Tri-Carb 2910 TR liquid scintillation counter (Waltham, Mass.). IC50 values for each compound were determined from dose-response curves and Ki values were calculated using the Cheng-Prusoff equation; these analyses were performed using GraphPad Prism version 5.00 for Windows (GraphPad Software, San Diego, Calif.). Reported Ki values were determined from least three independent experiments.

[4] = Table 1A, HEK 293 cells transfected with hD2LR, [3H]N-methylspiperone
[5] = Table 1A, HEK 293 cells transfected with hD3R, [3H]N-methylspiperone

Chain of human D3R (P35462 whole entry): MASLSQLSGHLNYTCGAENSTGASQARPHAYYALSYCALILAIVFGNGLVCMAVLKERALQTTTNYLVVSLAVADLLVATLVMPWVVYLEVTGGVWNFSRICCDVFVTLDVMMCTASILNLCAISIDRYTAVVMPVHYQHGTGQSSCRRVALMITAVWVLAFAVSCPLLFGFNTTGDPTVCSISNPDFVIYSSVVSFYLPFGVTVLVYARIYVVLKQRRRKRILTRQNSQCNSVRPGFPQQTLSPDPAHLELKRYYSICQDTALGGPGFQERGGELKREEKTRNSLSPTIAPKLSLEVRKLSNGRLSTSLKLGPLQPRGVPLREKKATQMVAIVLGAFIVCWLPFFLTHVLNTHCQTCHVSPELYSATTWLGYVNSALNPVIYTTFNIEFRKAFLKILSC
Chain of human D4R (P21917 whole entry): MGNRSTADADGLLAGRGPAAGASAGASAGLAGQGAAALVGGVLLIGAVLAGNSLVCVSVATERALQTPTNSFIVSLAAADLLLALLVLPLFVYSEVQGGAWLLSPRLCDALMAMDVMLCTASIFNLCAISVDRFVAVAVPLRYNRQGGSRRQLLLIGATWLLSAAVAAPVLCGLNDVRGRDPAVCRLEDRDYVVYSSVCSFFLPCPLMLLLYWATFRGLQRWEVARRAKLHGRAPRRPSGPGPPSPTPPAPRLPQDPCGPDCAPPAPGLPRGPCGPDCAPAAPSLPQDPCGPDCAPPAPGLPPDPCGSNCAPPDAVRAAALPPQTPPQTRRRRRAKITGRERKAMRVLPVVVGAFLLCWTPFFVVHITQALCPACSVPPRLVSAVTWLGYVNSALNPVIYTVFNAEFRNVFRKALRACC
Chain of human D2R (P14416 whole entry): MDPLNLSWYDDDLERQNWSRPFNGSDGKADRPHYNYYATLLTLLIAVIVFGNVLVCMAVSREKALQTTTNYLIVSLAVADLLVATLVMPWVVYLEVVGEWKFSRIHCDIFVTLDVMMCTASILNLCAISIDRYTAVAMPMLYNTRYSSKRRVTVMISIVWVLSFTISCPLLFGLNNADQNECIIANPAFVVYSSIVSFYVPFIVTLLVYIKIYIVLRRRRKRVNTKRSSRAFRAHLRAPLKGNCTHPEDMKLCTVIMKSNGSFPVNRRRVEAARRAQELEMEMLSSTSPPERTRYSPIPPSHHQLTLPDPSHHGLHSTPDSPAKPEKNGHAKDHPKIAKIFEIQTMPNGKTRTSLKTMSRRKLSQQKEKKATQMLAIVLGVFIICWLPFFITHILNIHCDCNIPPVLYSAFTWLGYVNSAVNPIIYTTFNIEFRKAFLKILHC

SMILES	Ki ([1]; Table 1C)	D3R selectivity over D2R (D2R/D3R) [2]	D2/D3 ([2]; Table 1C)	Ki ([2]; Table 1C)	Ki [3]	D4/D2 [3]	D4/D3 [3]	Ki [1, 4]	Ki [2, 5]	D2/D3 ([2]; Table 1A)
CCc1cc(Cl)c(OC)c(N2CCN(C[C@H](F)CCNC(=O)c3cc4ccccc4[nH]3)CC2)c1 [(R)-C4a, (R)-N-(4-(4-(3-chloro-5-ethyl-2-methoxyphenyl)piperazin-1-yl)-3-fluorobutyl)-1H-indole-2-carboxamide]	21.4 ± 1.5 µM	1650 fold	1646	0.013 ± 0.00294 µM	–	–	–	–	–	–
CCc1cccc(N2CCN(C[C@H](F)CCNC(=O)c3cc4ccccc4[nH]3)CC2)c1Cl [(R)-C5a, (R)-N-(4-(4-(2-chloro-3-ethylphenyl)piperazin-1-yl)-3-fluorobutyl)-1H-indole-2-carboxamide]	0.0802 ± 0.0138 µM	215 fold	215	0.000373 µM	–	–	–	–	–	–
CCc1cc(Cl)c(OC)c(N2CCN(C[C@@H](F)CCNC(=O)c3cc4ccccc4[nH]3)CC2)c1 [(S)-C4a, (S)-N-(4-(4-(3-chloro-5-ethyl-2-methoxyphenyl)piperazin-1-yl)-3-fluorobutyl)-1H-indole-2-carboxamidec]	18.9 ± 2.72 µM	535 fold	535	0.0353 µM	–	–	–	–	–	–
CCc1cccc(N2CCN(C[C@@H](F)CCNC(=O)c3cc4ccccc4[nH]3)CC2)c1Cl [(S)-C5a, (S)-N-(4-(4-(2-chloro-3-ethylphenyl)piperazin-1-yl)-3-fluorobutyl)-1H-indole-2-carboxamide]	0.891 ± 0.305 µM	> 1000 fold	1060	0.00084 µM	–	–	–	–	–	–
CCc1cccc(N2CCN(CCCCNC(=O)c3cn4ccccc4n3)CC2)c1Cl [Compound 22, N-(4-(4-(2-chloro-3-ethylphenyl)piperazin-1-yl)butyl)imidazo[1,2-a]pyridine-2-carboxamide]	–	–	–	–	0.819 ± 0.175 µM	145.2	2482	0.00564 ± 0.00098 µM	0.00033 ± 8.5e-05 µM	17.1
CCc1cccc(N2CCN(CC(O)CCNC(=O)c3cn4ccccc4n3)CC2)c1Cl (stereo not shown) [Compound 23, N-(4-(4-(2-Chloro-3-ethylphenyl)piperazin-1-yl)-3-hydroxybutyl)imidazo[1,2-a]pyridine-2-carboxamide]	–	–	–	–	11.3 µM	58.5	2671	0.193 ± 0.0405 µM	0.00423 ± 0.00084 µM	45.6
CCc1cccc(N2CCN(CCC(O)CNC(=O)c3cc4ccccc4[nH]3)CC2)c1Cl (stereo not shown) [Compound 40, N-(4-(4-(2-Chloro-3-ethylphenyl)piperazin-1-yl)-2-hydroxybutyl)-1H-indole-2-carboxamide]	–	–	–	–	0.305 ± 0.0705 µM	44.7	1525	0.00683 ± 0.00053 µM	0.0002 ± 1.8e-05 µM	34.2
CCc1cc(Cl)c(OC)c(N2CCN(CC(O)CCNC(=O)c3ccc4c(c3)OCO4)CC2)c1 (stereo not shown) [Compound 113a, N-(4-(4-(3-Chloro-5-ethyl-2-methoxyphenyl)piperazin-1-yl)-3-hydroxybutyl)benzo[d][1,3]dioxole-5-carboxamide]	0.364 ± 0.101 µM	–	15	0.0245 ± 0.00444 µM	–	–	–	–	–	–
CCc1cccc(N2CCN(CC(O)CCNC(=O)c3ccc4c(c3)OCO4)CC2)c1Cl (stereo not shown) [Compound 113b, N-(4-(4-(2-Chloro-3-ethylphenyl)piperazin-1-yl)-3-hydroxybutyl)benzo[d 1,3]dioxole-5-carboxamide]	0.424 ± 0.0799 µM	–	140	0.00302 ± 0.000742 µM	–	–	–	–	–	–
CCc1cc2c(cc1N1CCN(CC(O)CCNC(=O)c3cc4ccccc4o3)CC1)OCO2 (stereo not shown) [Compound 122, N-(4-(4-(6-Ethylbenzo[d][1,3]dioxol-5-yl)piperazin-1-yl)-3-hydroxybutyl)benzofuran-2-carboxamide]	1.44 ± 0.0488 µM	–	61	0.0236 ± 0.00735 µM	–	–	–	–	–	–

Further lines, results first:

Ki ([1]; Table 1C)	D3R selectivity over D2R (D2R/D3R) [2]	D2/D3 ([2]; Table 1C)	Ki ([2]; Table 1C)	Ki [3]	D4/D2 [3]	D4/D3 [3]	Ki [1, 4]	Ki [2, 5]	D2/D3 ([2]; Table 1A)	SMILES
–	–	–	–	0.143 ± 0.00318 µM	30.8	152	0.00465 ± 0.00124 µM	0.00094 ± 0.00013 µM	4.9	CCc1cccc(N2CCN(CCCCNC(=O)c3c(C)nc4sccn34)CC2)c1Cl [Compound 24, N-(4-(4-(2-chloro-3-ethylphenyl)piperazin-1-yl)butyl)-6-methylimidazo[2,1-b]thiazole-5-carboxamide]
–	–	–	–	0.5 ± 0.0309 µM	40.0	439	0.0125 ± 0.00107 µM	0.00114 ± 0.00017 µM	11.0	CCc1c[nH]c(C(=O)NCCCCN2CCN(c3cccc(CC)c3Cl)CC2)n1 [Compound 25, N-(4-(4-(2-Chloro-3-ethylphenyl)piperazin-1-yl)butyl)-4-ethyl-1H-imidazole-2-carboxamide]
–	–	–	–	0.529 ± 0.0423 µM	43.4	853	0.0122 ± 0.00258 µM	0.00062 ± 9.6e-05 µM	19.7	CCc1cccc(N2CCN(CCCCNC(=O)c3nc(C)c[nH]3)CC2)c1Cl [Compound 26, N-(4-(4-(2-Chloro-3-ethylphenyl)piperazin-1-yl)butyl)-4-methyl-1H-imidazole-2-carboxamide]
–	–	–	–	1.96 ± 0.344 µM	13.1	175	0.15 ± 0.0131 µM	0.0112 ± 0.00266 µM	13.4	CCc1cccc(N2CCN(CC(O)CCNC(=O)c3nc(C)c[nH]3)CC2)c1Cl (stereo not shown) [Compound 27, N-(4-(4-(2-Chloro-3-ethylphenyl)piperazin-1-yl)-3-hydroxybutyl)-4-methyl-1H-imidazole-2-carboxamide]
–	–	–	–	0.503 ± 0.157 µM	31.2	393	0.0161 ± 0.0012 µM	0.00128 ± 0.00022 µM	12.6	CCc1cccc(N2CCN(C/C=C/CNC(=O)c3nc(C)c[nH]3)CC2)c1Cl [Compound 35, (E)-N-(4-(4-(2-Chloro-3-ethylphenyl)piperazin-1-yl)but-2-en-1-yl)-4-methyl-1H-imidazole-2-carboxamide]
